# Measured values reported in patent publication US20170065593A1, “Combination” (Novartis AG, priority 2009, published 2017).
# Like-named read-outs stand apart in the source and are kept apart here.
# Columns and labels:
# NCI-H2291 = assay: Cell growth inhibition assay (Cell Titer Glo, 3 days); assay type: cell-based, Human; conditions: NCI-H2291 (KRAS_G12F), single agent, mean ± std
# Experimental: (§1) Human tumor cell lines from lung cancer, A427, A549, Calu1, Calu3, Calu6, COR-L23, HOP62, MV522, NCI-H1155, NCI-H1299, NCI-H1355, NCI-H1395, NCI-H157, NCI-H1573, NCI-H1666, NCI-1755, NCI-H1792, NCI-2009, NCI-H2030, NCI-H2122, NCI-H2291, NCI-H23, NCI-H2347, NCI-H358, NCI-H441, NCI-H460, NCI-H650, NCI-H727, SW1573 and SW900 were cultured in RPMI 1640 medium containing 10% fetal bovine serum (FBS). Cell line mutation data was collated for the status for the RAS and RAF genes. The data source is the cancer cell line mutation screening data published as part of the Catalog of Somatic Mutations in Cancer database (COSMIC) (Bamford S. et al. Br. J. Cancer. 2004. 91:355-58) and/or in house DNA sequencing.
# (§2) Cells were seeded in a 96-well tissue culture plate (NUNC 136102) of RPMI medium containing 10% FBS at 500-2,000 cells per well. Approximately 24 hours after plating, cells were exposed to ten, two-fold or three-fold serial dilutions of either Compound A or B or the combination of the two agents at a 10:1 molar ratio (Compounds A and B respectively). The final dosing concentration range for Compound A was 2-1000 nM and was 0.2-100 nM for Compound B. Cells were incubated in the presence of compounds for 3 days. ATP levels were determined by adding Cell Titer Glo® (Promega) according to the manufacturer's protocol. Briefly, Cell Titer Glo® was added to each plate, incubated for 20 minutes then luminescent signal was read on the SpectraMax L plate reader with a 0.5 sec integration time. All assays were run at least in duplicate.
# (§3) Inhibition of cell growth was estimated after treatment with compound or combination of compounds for three days and comparing the signal to cells treated with vehicle (DMSO). Cell growth was calculated relative to vehicle (DMSO) treated control wells. Concentration of compound that inhibits 50% of control cell growth (IC50) was back-interpolated when y=50% of DMSO treated control wells using nonlinear regression with the equation: […]
# NCI-H2030 = assay: as above; assay type: cell-based, Human; conditions: NCI-H2030 (KRAS_G12C), single agent, mean ± std
# Experimental: as §1, §2, §3
# NCI-H2009 = assay: as above; assay type: cell-based, Human; conditions: NCI-H2009 (KRAS-G12A), single agent, mean ± std
# Experimental: as §1, §2, §3
# NCI-H460 = assay: as above; assay type: cell-based, Human; conditions: NCI-H460 (KRAS_Q61H), single agent, mean ± std
# Experimental: as §1, §2, §3
# HOP62 = assay: as above; assay type: cell-based, Human; conditions: HOP62 (KRAS_G12C), single agent, mean ± std
# Experimental: as §1, §2, §3
# NCI-H1573 = assay: as above; assay type: cell-based, Human; conditions: NCI-H1573 (KRAS-G12A), single agent, mean ± std
# Experimental: as §1, §2, §3
# SW1573 = assay: as above; assay type: cell-based, Human; conditions: SW1573 (KRAS_G12C), single agent, mean ± std
# Experimental: as §1, §2, §3
# NCI-H441 = assay: as above; assay type: cell-based, Human; conditions: NCI-H441 (KRAS_G12V), single agent, mean ± std
# Experimental: as §1, §2, §3
# NCI-H23 = assay: as above; assay type: cell-based, Human; conditions: NCI-H23 (KRAS_G12C), single agent, mean ± std
# Experimental: as §1, §2, §3
# CORL23 = assay: as above; assay type: cell-based, Human; conditions: CORL23 (KRAS_G12V), single agent, mean ± std
# Experimental: as §1, §2, §3
# NCI-H1299 = assay: as above; assay type: cell-based, Human; conditions: NCI-H1299 (NRAS_Q61K), single agent, mean ± std
# Experimental: as §1, §2, §3
# Calu1 = assay: as above; assay type: cell-based, Human; conditions: Calu1 (KRAS_G12C), single agent, mean ± std
# Experimental: as §1, §2, §3
# NCI-H2122 = assay: as above; assay type: cell-based, Human; conditions: NCI-H2122 (KRAS_G12C), single agent, mean ± std
# Experimental: as §1, §2, §3
# NCI-H1666 = assay: as above; assay type: cell-based, Human; conditions: NCI-H1666 (BRAF_G466V), single agent, mean ± std
# Experimental: as §1, §2, §3
# NCI-H358 = assay: as above; assay type: cell-based, Human; conditions: NCI-H358 (KRAS_G12C), single agent, mean ± std
# Experimental: as §1, §2, §3
# SW900 = assay: as above; assay type: cell-based, Human; conditions: SW900 (KRAS_G12V), single agent, mean ± std
# Experimental: as §1, §2, §3
# NCI-H157 = assay: as above; assay type: cell-based, Human; conditions: NCI-H157 (KRAS_G12R), single agent, mean ± std
# Experimental: as §1, §2, §3
# NCI-H1355 = assay: as above; assay type: cell-based, Human; conditions: NCI-H1355 (KRAS_G13C), single agent, mean ± std
# Experimental: as §1, §2, §3
# NCI-H727 = assay: as above; assay type: cell-based, Human; conditions: NCI-H727 (KRAS_G12V), single agent, mean ± std
# Experimental: as §1, §2, §3
# [1] = tested on: panel of 29 human lung tumor cell lines; assay: Cell growth inhibition, summary over the panel; assay type: cell-based; conditions: out of 29 lines; single agent
# Experimental: as §1
# Cells were seeded in a 96-well tissue culture plate (NUNC 136102) of RPMI medium containing 10% FBS at 500-2,000 cells per well. […] ATP levels were determined by adding Cell Titer Glo® (Promega) according to the manufacturer's protocol. Briefly, Cell Titer Glo® was added to each plate, incubated for 20 minutes then luminescent signal was read on the SpectraMax L plate reader with a 0.5 sec integration time. […]
# Inhibition of cell growth was estimated after treatment with compound or combination of compounds for three days and comparing the signal to cells treated with vehicle (DMSO). Cell growth was calculated relative to vehicle (DMSO) treated control wells. […]
# [2] = Homo sapiens, 72 h, read-out: IC50 Single Agent Compound B
# [3] = read-out: IC50 Single Agent Compound A
molecule,measurement,setting,value
"CO[C@H]1C[C@@H]2CC[C@@H](C)[C@@](O)(O2)C(=O)C(=O)N2CCCC[C@H]2C(=O)O[C@H]([C@H](C)C[C@@H]2CC[C@@H](OCCO)[C@H](OC)C2)CC(=O)[C@H](C)/C=C(\C)[C@@H](O)[C@@H](OC)C(=O)[C@H](C)C[C@H](C)/C=C/C=C/C=C/1C [Compound B, everolimus]",IC50,NCI-H2291; [2],> 100 nM
same,IC50,NCI-H2030; [2],> 10 nM
same,IC50,NCI-H2009; [2],> 100 nM
same,IC50,NCI-H460; [2],> 70 nM
same,IC50,"HOP62; Homo sapiens, HOP-62, 72 h, read-out: IC50 Single Agent Compound B",> 100 nM
same,IC50,NCI-H1573; [2],> 100 nM
same,IC50,SW1573; [2],> 100 nM
same,IC50,NCI-H441; [2],> 100 nM
same,IC50,NCI-H23; [2],> 100 nM
same,IC50,"CORL23; Homo sapiens, COR-L23, 72 h, read-out: IC50 Single Agent Compound B",> 100 nM
same,IC50,NCI-H1299; [2],> 100 nM
same,IC50,"Calu1; Homo sapiens, Calu-1, 72 h, read-out: IC50 Single Agent Compound B",> 100 nM
same,IC50,NCI-H2122; [2],97 ± 37 nM
same,IC50,NCI-H1666; [2],> 100 nM
same,IC50,NCI-H358; [2],> 100 nM
same,IC50,SW900; [2],> 100 nM
same,IC50,NCI-H157; [2],> 100 nM
same,IC50,NCI-H1355; [2],> 100 nM
same,IC50,NCI-H727; [2],> 100 nM
same,number of lines sensitive (IC50s<100 nM),[1],2
"N-{3-[3-cyclopropyl-5-(2-fluoro-4-iodo-phenylamino)6,8-dimethyl;-2,4,7-trioxo-3,4,6,7-tetrahydro-2H-pyrido[4,3-d]pyrimidin-1-yl]phenyl}acetamide [Compound A]",IC50,NCI-H2291; [3],4 nM
same,IC50,NCI-H2030; [3],> 1000 nM
same,IC50,NCI-H2009; [3],204 ± 78 nM
same,IC50,NCI-H460; [3],37 ± 11 nM
same,IC50,HOP62; [3],> 1000 nM
same,IC50,NCI-H1573; [3],82 ± 11 nM
same,IC50,SW1573; [3],> 1000 nM
same,IC50,NCI-H441; [3],> 1000 nM
same,IC50,NCI-H23; [3],31 ± 2 nM
same,IC50,CORL23; [3],989 ± 86 nM
same,IC50,NCI-H1299; [3],277 ± 92 nM
same,IC50,Calu1; [3],> 1000 nM
same,IC50,NCI-H2122; [3],5 ± 1 nM
same,IC50,NCI-H1666; [3],44 ± 46 nM
same,IC50,NCI-H358; [3],31 ± 10 nM
same,IC50,SW900; [3],141 ± 2 nM
same,IC50,NCI-H157; [3],> 1000 nM
same,IC50,NCI-H1355; [3],67 ± 24 nM
same,IC50,NCI-H727; [3],3 ± 1 nM
same,number of lines sensitive (IC50s<100 nM),[1],17
